# ± gives the expanded uncertainty stated by the source.
# Test: molar heat capacity at constant pressure
# Conditions: 101.33 kPa, Crystal, Small (less than 1 g) adiabatic calorimetry
smiles,measurement,setting,value
N.O=C(O)c1ccccc1 [ammonium benzoate],molar heat capacity at constant pressure,80.23 K,65.17 ± 0.43 J/K/mol
same,molar heat capacity at constant pressure,81.77 K,66.19 ± 0.43 J/K/mol
same,molar heat capacity at constant pressure,84.03 K,67.46 ± 0.44 J/K/mol
same,molar heat capacity at constant pressure,86.2 K,68.89 ± 0.45 J/K/mol
same,molar heat capacity at constant pressure,88.38 K,69.94 ± 0.45 J/K/mol
same,molar heat capacity at constant pressure,90.56 K,71.51 ± 0.49 J/K/mol
same,molar heat capacity at constant pressure,92.57 K,72.72 ± 0.49 J/K/mol
same,molar heat capacity at constant pressure,94.64 K,74.19 ± 0.5 J/K/mol
same,molar heat capacity at constant pressure,96.64 K,75.8 ± 0.5 J/K/mol
same,molar heat capacity at constant pressure,98.62 K,77.01 ± 0.51 J/K/mol
same,molar heat capacity at constant pressure,100.55 K,78.03 ± 0.51 J/K/mol
same,molar heat capacity at constant pressure,102.41 K,79.33 ± 0.52 J/K/mol
same,molar heat capacity at constant pressure,104.34 K,80.86 ± 0.52 J/K/mol
same,molar heat capacity at constant pressure,106.2 K,81.8 ± 0.53 J/K/mol
same,molar heat capacity at constant pressure,107.97 K,83.16 ± 0.53 J/K/mol
same,molar heat capacity at constant pressure,109.83 K,84.27 ± 0.54 J/K/mol
same,molar heat capacity at constant pressure,111.6 K,85.3 ± 0.54 J/K/mol
same,molar heat capacity at constant pressure,113.37 K,86.37 ± 0.55 J/K/mol
same,molar heat capacity at constant pressure,115.15 K,87.62 ± 0.55 J/K/mol
same,molar heat capacity at constant pressure,116.84 K,88.74 ± 0.56 J/K/mol
same,molar heat capacity at constant pressure,118.61 K,90.01 ± 0.56 J/K/mol
same,molar heat capacity at constant pressure,120.31 K,91.47 ± 0.57 J/K/mol
same,molar heat capacity at constant pressure,122.97 K,92.89 ± 0.57 J/K/mol
same,molar heat capacity at constant pressure,126.27 K,94.89 ± 0.58 J/K/mol
same,molar heat capacity at constant pressure,129.18 K,96.99 ± 0.59 J/K/mol
same,molar heat capacity at constant pressure,132.16 K,98.85 ± 0.6 J/K/mol
same,molar heat capacity at constant pressure,135.06 K,100.95 ± 0.6 J/K/mol
same,molar heat capacity at constant pressure,138.04 K,102.77 ± 0.61 J/K/mol
same,molar heat capacity at constant pressure,141.02 K,104.57 ± 0.62 J/K/mol
same,molar heat capacity at constant pressure,144.01 K,106.24 ± 0.63 J/K/mol
same,molar heat capacity at constant pressure,147 K,108.24 ± 0.63 J/K/mol
same,molar heat capacity at constant pressure,149.93 K,110.5 ± 0.64 J/K/mol
same,molar heat capacity at constant pressure,152.9 K,112.26 ± 0.65 J/K/mol
same,molar heat capacity at constant pressure,155.86 K,113.91 ± 0.66 J/K/mol
same,molar heat capacity at constant pressure,158.85 K,116.09 ± 0.66 J/K/mol
same,molar heat capacity at constant pressure,161.8 K,118.15 ± 0.67 J/K/mol
same,molar heat capacity at constant pressure,164.77 K,120.01 ± 0.68 J/K/mol
same,molar heat capacity at constant pressure,167.74 K,121.97 ± 0.69 J/K/mol
same,molar heat capacity at constant pressure,170.72 K,124.05 ± 0.7 J/K/mol
same,molar heat capacity at constant pressure,173.71 K,125.52 ± 0.7 J/K/mol
same,molar heat capacity at constant pressure,176.67 K,127.13 ± 0.71 J/K/mol
same,molar heat capacity at constant pressure,179.65 K,129.42 ± 0.72 J/K/mol
same,molar heat capacity at constant pressure,183.76 K,131.94 ± 0.73 J/K/mol
same,molar heat capacity at constant pressure,187.79 K,134.2 ± 0.74 J/K/mol
same,molar heat capacity at constant pressure,190.78 K,136.42 ± 0.75 J/K/mol
same,molar heat capacity at constant pressure,193.75 K,138.62 ± 0.75 J/K/mol
same,molar heat capacity at constant pressure,196.71 K,140.39 ± 0.76 J/K/mol
same,molar heat capacity at constant pressure,199.69 K,142.17 ± 0.77 J/K/mol
same,molar heat capacity at constant pressure,202.71 K,144.2 ± 0.78 J/K/mol
same,molar heat capacity at constant pressure,205.7 K,146.13 ± 0.78 J/K/mol
same,molar heat capacity at constant pressure,208.67 K,148.09 ± 0.79 J/K/mol
same,molar heat capacity at constant pressure,211.63 K,149.94 ± 0.8 J/K/mol
same,molar heat capacity at constant pressure,214.62 K,152.01 ± 0.81 J/K/mol
same,molar heat capacity at constant pressure,217.63 K,153.98 ± 0.82 J/K/mol
same,molar heat capacity at constant pressure,220.61 K,155.64 ± 0.82 J/K/mol
same,molar heat capacity at constant pressure,223.59 K,157.46 ± 0.83 J/K/mol
same,molar heat capacity at constant pressure,226.57 K,159.31 ± 0.84 J/K/mol
same,molar heat capacity at constant pressure,229.56 K,161.33 ± 0.85 J/K/mol
same,molar heat capacity at constant pressure,232.46 K,163.12 ± 0.85 J/K/mol
same,molar heat capacity at constant pressure,235.52 K,164.85 ± 0.86 J/K/mol
same,molar heat capacity at constant pressure,238.67 K,166.71 ± 0.87 J/K/mol
same,molar heat capacity at constant pressure,242.46 K,169.25 ± 0.88 J/K/mol
same,molar heat capacity at constant pressure,246.17 K,170.85 ± 0.88 J/K/mol
same,molar heat capacity at constant pressure,249.15 K,172.58 ± 0.89 J/K/mol
same,molar heat capacity at constant pressure,252.13 K,174.29 ± 0.9 J/K/mol
same,molar heat capacity at constant pressure,255.04 K,176.25 ± 0.91 J/K/mol
same,molar heat capacity at constant pressure,258.02 K,177.81 ± 0.91 J/K/mol
same,molar heat capacity at constant pressure,261.08 K,179.36 ± 0.92 J/K/mol
same,molar heat capacity at constant pressure,264.07 K,180.92 ± 0.92 J/K/mol
same,molar heat capacity at constant pressure,267.13 K,182.91 ± 0.93 J/K/mol
same,molar heat capacity at constant pressure,270.11 K,184.57 ± 0.94 J/K/mol
same,molar heat capacity at constant pressure,273.1 K,186.5 ± 0.95 J/K/mol
same,molar heat capacity at constant pressure,276.05 K,188.1 ± 0.95 J/K/mol
same,molar heat capacity at constant pressure,279 K,189.37 ± 0.96 J/K/mol
same,molar heat capacity at constant pressure,281.97 K,190.96 ± 0.96 J/K/mol
same,molar heat capacity at constant pressure,284.95 K,192.56 ± 0.97 J/K/mol
same,molar heat capacity at constant pressure,287.93 K,194.07 ± 0.98 J/K/mol
same,molar heat capacity at constant pressure,291 K,195.71 ± 0.98 J/K/mol
same,molar heat capacity at constant pressure,293.98 K,197.29 ± 0.99 J/K/mol
same,molar heat capacity at constant pressure,296.96 K,199.56 ± 1 J/K/mol
same,molar heat capacity at constant pressure,299.95 K,200.88 ± 1 J/K/mol
same,molar heat capacity at constant pressure,302.93 K,203.11 ± 1 J/K/mol
same,molar heat capacity at constant pressure,305.83 K,204.55 ± 1 J/K/mol
same,molar heat capacity at constant pressure,308.82 K,205.93 ± 1 J/K/mol
same,molar heat capacity at constant pressure,311.72 K,207.7 ± 1 J/K/mol
same,molar heat capacity at constant pressure,314.7 K,209.41 ± 1 J/K/mol
same,molar heat capacity at constant pressure,317.68 K,210.92 ± 1 J/K/mol
same,molar heat capacity at constant pressure,320.75 K,212.63 ± 1.1 J/K/mol
same,molar heat capacity at constant pressure,323.73 K,214.01 ± 1.1 J/K/mol
same,molar heat capacity at constant pressure,326.71 K,215.52 ± 1.1 J/K/mol
same,molar heat capacity at constant pressure,329.78 K,216.96 ± 1.1 J/K/mol
same,molar heat capacity at constant pressure,332.76 K,218.8 ± 1.1 J/K/mol
same,molar heat capacity at constant pressure,335.75 K,220.31 ± 1.1 J/K/mol
same,molar heat capacity at constant pressure,338.73 K,222.08 ± 1.1 J/K/mol
same,molar heat capacity at constant pressure,341.71 K,223.72 ± 1.1 J/K/mol
same,molar heat capacity at constant pressure,344.61 K,225.36 ± 1.1 J/K/mol
same,molar heat capacity at constant pressure,347.6 K,226.81 ± 1.1 J/K/mol
same,molar heat capacity at constant pressure,350.5 K,228.38 ± 1.1 J/K/mol
same,molar heat capacity at constant pressure,353.48 K,229.7 ± 1.1 J/K/mol
same,molar heat capacity at constant pressure,356.55 K,231.21 ± 1.1 J/K/mol
same,molar heat capacity at constant pressure,359.53 K,232.72 ± 1.1 J/K/mol
same,molar heat capacity at constant pressure,362.59 K,234.1 ± 1.1 J/K/mol
same,molar heat capacity at constant pressure,365.58 K,235.61 ± 1.1 J/K/mol
same,molar heat capacity at constant pressure,368.56 K,237.58 ± 1.1 J/K/mol
same,molar heat capacity at constant pressure,371.54 K,239.09 ± 1.2 J/K/mol
same,molar heat capacity at constant pressure,374.53 K,240.86 ± 1.2 J/K/mol
same,molar heat capacity at constant pressure,377.51 K,242.44 ± 1.2 J/K/mol
same,molar heat capacity at constant pressure,380.49 K,243.95 ± 1.2 J/K/mol
same,molar heat capacity at constant pressure,383.4 K,245.72 ± 1.2 J/K/mol
same,molar heat capacity at constant pressure,386.3 K,247.56 ± 1.2 J/K/mol
same,molar heat capacity at constant pressure,389.28 K,249.39 ± 1.2 J/K/mol
same,molar heat capacity at constant pressure,392.35 K,251.17 ± 1.2 J/K/mol
same,molar heat capacity at constant pressure,395.33 K,252.68 ± 1.2 J/K/mol
same,molar heat capacity at constant pressure,398.31 K,254.12 ± 1.2 J/K/mol

# — the NIST ThermoML archive (doi:10.1016/j.tca.2010.01.021)
